One may read the IC50 as the concentration needed to halve the response being measured.

Structures can show the parent of a compound that is named as a salt. A value given as a limit tells only on which side of the number the result lay.

The target of the assay is T1, KRAS G12D (Homo sapiens, UniProt P01116, G12D).
T1 construct: Recombinant human KRAS G12D (aa 2-169, expressed in E. coli); His-tag (TEV cleavable) (N); purchased Reaction Biology Corporation (RBC) SOS1: RBC cat #MSC-11-502; KRAS G12D: not given; host or cells: E. coli
T1 sequence (P01116 2-169 G12D): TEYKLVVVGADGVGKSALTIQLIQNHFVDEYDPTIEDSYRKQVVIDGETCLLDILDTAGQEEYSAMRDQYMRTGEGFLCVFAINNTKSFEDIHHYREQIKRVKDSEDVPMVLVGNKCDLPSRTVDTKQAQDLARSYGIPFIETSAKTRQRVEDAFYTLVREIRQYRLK
Briefly: KRAS G12D/SOS1 Nucleotide Exchange Assay (SOS1-mediated Bodipy-GDP to GTP exchange). It counts as biochemical. To be noted: rate constant method (plateau = 0), Bodipy-GDP/KRAS G12D as substrate, 0.5% DMSO, 30 min pre-incubation at RT. Here is the method:
The compound pre-incubation time was 30 min at RT and the curve fits were performed when the activities at the highest concentration of compounds were less than 65%.
Reaction Buffer: 40 mM HEPES 7.4, 10 mM MgCl2, 1 mM DTT 0.002% Triton ×100, 0.5% DMSO.
KRAS is pre-loaded with a 5-fold excess of Bodipy-GDP. The excess Bodipy-GDP is separated from loaded protein using a spin desalting column.
• 1. Deliver 10 μL of 1.5× KRAS solution in freshly prepared reaction buffer to reaction wells. • 2. Deliver compounds in 100% DMSO into buffer using acoustic technology (Echo550; nanoliter range). • 3. Incubate compounds with KRAS for 30 minutes at room temperature. • 4. Prepare 3× (SOS1+GTP) solution in reaction buffer. • 5. Deliver 5 μL of SOS1+GTP solution into reactions wells (deliver GTP only to column 1 for no SOS1 control). • 6.
Data Analysis: The fluorescence data was normalized using the equation below and fitted to “one phase exponential decay” equation using GraphPad prism software. The plateau was fixed to zero (use for non-covalent inhibitors) and rate ×1000 was used to calculate the IC50 values.
[formula] • where Yraw is defined as fluorescence at time t, Ao is the average initial fluorescence with no SOS1, and M is the minimum fluorescence at the end of the reaction at the maximum SOS1.
The background subtracted signals (no SOS1 protein wells were used as background) were converted to % activity relative to DMSO controls. Data was analyzed using GraphPad Prism 4 with “sigmoidal dose-response (variable slope)”; 4 parameters with Hill Slope. The constraints were bottom (constant equal to 0) and top (must be less than 120).
Compound `Oc1cc(-c2cnc3c(N4C[C@H]5CC[C@@H](C4)N5)nc(OCC45CCCN4CCC5)nc3c2)c2ccccc2c1` [Example 2, 4-(4-((1R,5S)-3,8-Diazabicyclo[3.2.1]octan-3-yl)-2-((tetrahydro-1H-pyrrolizin-7a(5H)-yl)methoxy)pyrido[3,2-d]pyrimidin-7-yl)naphthalen-2-ol] had an IC50 of 35 ± 5.7 nM.

In turn, `CN1CCC[C@H]1COc1nc(N2C[C@H]3CC[C@@H](C2)N3)c2ccc(-c3cccc4cccc(Cl)c34)nc2n1` [Example 3, 4-((1R,5S)-3,8-Diazabicyclo[3.2.1]octan-3-yl)-7-(8-chloronaphthalen-1-yl)-2-(((S)-1-methylpyrrolidin-2-yl)methoxy)pyrido[2,3-d]pyrimidine] showed an IC50 above 10000 nM. As to `C#Cc1c(F)ccc2cc(O)cc(-c3cnc4c(N5C[C@H]6CC[C@@H](C5)N6)nc(OC[C@@]56CCCN5C[C@H](F)C6)nc4c3)c12` [Example 5, 4-(4-((1R,5S)-3,8-Diazabicyclo[3.2.1]octan-3-yl)-2-(((2R,7aS)-2-fluorotetrahydro-1H-pyrrolizin-7a(5H)-yl)methoxy)pyrido[3,2-d]pyrimidin-7-yl)-5-ethynyl-6-fluoronaphthalen-2-ol], the IC50 came out at 28 nM.

`Clc1cccc2cccc(-c3ccc4c(N5C[C@H]6CC[C@@H](C5)N6)nc(OCC56CCCN5CCC6)nc4n3)c12` [Example 4, 4-((1R,5S)-3,8-diazabicyclo[3.2.1]octan-3-yl)-7-(8-chloronaphthalen-1-yl)-2-((tetrahydro-1H-pyrrolizin-7a(5H)-yl)methoxy)pyrido[2,3-d]pyrimidine] had an IC50 of 8600 nM. As to `Clc1cccc2cccc(-c3cnc4c(N5C[C@H]6CC[C@@H](C5)N6)nc(OCC56CCCN5CCC6)nc4c3)c12` [Example 1, 4-((1R,5S)-3,8-Diazabicyclo[3.2.1]octan-3-yl)-7-(8-chloronaphthalen-1-yl)-2-((tetrahydro-1H-pyrrolizin-7a(5H)-yl)methoxy)pyrido[3,2-d]pyrimidine hydrochloride (1:3)], the IC50 worked out at 610 nM.

The values above are taken from patent US20250250286A1, “FUSED PYRIMIDINE DERIVATIVES AS KRAS ONCOPROTEIN INHIBITORS” (BETA PHARMA, INC., priority 2021, published 2025).
